Laboratory results: US10160771B2, “Hepatitis C virus inhibitors and uses thereof in preparation of drugs” (priority 2014, dated 2018)

Tests used:
[1] = test system: HCV genotype 1b (HCV-1b) replicon cells; test: HCV genotype 1b replicon luciferase assay (EC50); format: cell-based, hepatitis C virus genotype 1b (Con1 clone); details: Hepatitis C virus, 72 h, 3 days, luciferase (Bright-Glo)
Procedure, shortened: (§1)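 H77-derived 1a (K1691R, K2040R, S2204I) or Con1-derived 1b (E1202G, T1280I, K1846T) luciferase replicon cells, 8000/well, exposed 3 days at 37° C. to 6-point 5-fold dilutions (top 100, 10 or 1 nM; 0.5% DMSO), in duplicate. Bright-Glo luminescence read; EC50 from nonlinear fit of % inhibition.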

[2] = Cell Titer-fluor cell activity assay in HCV-1b replicon cells (CC50); format: cell-based
Procedure, shortened: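 Con1 genotype 1b replicon cells (E1202G, T1280I, K1846T adaptive mutations), 8000 cells/well, exposed to 6-point 5-fold dilutions from 100, 10 or 1 nM top concentration in 0.5% DMSO, duplicate wells, 3 days at 37 °C. Viability read by Cell Titer-fluor (Ex 405/Em 515 nm) after 30 min; CC50 from nonlinear fit of inhibition %.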

[3] = test system: HCV genotype 1a (HCV-1a) replicon cells; test: HCV genotype 1a replicon luciferase assay (EC50); format: cell-based, hepatitis C virus genotype 1a (H77 clone); details: Hepatitis C virus, 72 h, 3 days, luciferase (Bright-Glo)
Procedure, shortened: as §1

SMILES: COC(=O)NC(C(=O)N1CCCC1c1[nH]c(-c2ccc(-c3ccc(-c4cnc([C@@H]5CCCN5C(=O)[C@@H](NC(=O)OC)C(C)C)[nH]4)cc3)cc2)c2c1CCCC2)C1CCOC1 (stereo partly drawn) [AG_027]
- EC50 [1]: 0.101 to 1 nM
- CC50 at 3 days [2]: > 10 nM
- EC50 [3]: 10 to 100 nM

SMILES: COC(=O)N[C@H](C(=O)N1CCCC1c1ccc(-c2ccc(-c3ccc(-c4cnc([C@@H]5CCCN5C(=O)[C@@H](NC(=O)OC)C5CCOC5)[nH]4)cc3)cc2)[nH]1)C(C)C (stereo partly drawn) [AG_054]
- EC50 [1]: 0.001 to 0.1 nM
- CC50 at 3 days [2]: > 10 nM
- EC50 [3]: 0.101 to 1 nM

SMILES: COC(=O)N[C@H](C(=O)N1CCCC1c1[nH]c(-c2ccc(-c3ccc(-c4cnc([C@@H]5CCCN5C(=O)[C@@H](NC(=O)OC)C(C)C)[nH]4)cc3)cc2)c2c1COC2)C(C)C (stereo partly drawn) [AG_060]
- EC50 [1]: 0.001 to 0.1 nM
- CC50 at 3 days [2]: > 1 nM
- EC50 [3]: 0.101 to 1 nM

SMILES: COC(=O)N[C@H](C(=O)N1CCC[C@H]1c1ncc(-c2ccc(-c3ccc(-c4[nH]c([C@@H]5CCCN5C(=O)[C@@H](NC(=O)OC)C(C)C)c5c4COC5)cc3)cc2)[nH]1)C(C)C [AG_060_B]
- EC50 [1]: 0.001 to 0.1 nM
- CC50 at 3 days [2]: > 10 nM
- EC50 [3]: 0.001 to 0.1 nM

SMILES: COC(=O)N[C@H](C(=O)N1CCC[C@H]1c1ccc(-c2ccc(-c3ccc(-c4cnc([C@@H]5CCCN5C(=O)[C@@H](NC(=O)OC)[C@@H](C)OC)[nH]4)cc3)cc2)[nH]1)C(C)C [AG_061_A]
- EC50 [1]: 0.001 to 0.1 nM
- CC50 at 3 days [2]: > 1 nM
- EC50 [3]: 0.101 to 1 nM

SMILES: COC(=O)N[C@H](C(=O)N1CCC[C@@H]1c1ccc(-c2ccc(-c3ccc(-c4cnc([C@@H]5CCCN5C(=O)[C@@H](NC(=O)OC)[C@@H](C)OC)[nH]4)cc3)cc2)[nH]1)C(C)C [AG_061_B]
- EC50 [1]: 0.001 to 0.1 nM
- CC50 at 3 days [2]: > 10 nM
- EC50 [3]: 0.101 to 1 nM

SMILES: COC(=O)N[C@H](C(=O)N1CCC[C@H]1c1nc2cc(-c3ccc(-c4[nH]c([C@@H]5CCCN5C(=O)[C@@H](NC(=O)OC)C(C)C)c5c4CCC5)cc3)ccc2[nH]1)C(C)C [AG_063]
- EC50 [1]: 0.001 to 0.1 nM
- CC50 at 3 days [2]: > 1 nM
- EC50 [3]: 10 to 100 nM

SMILES: COC(=O)N[C@H](C(=O)N1CCC[C@H]1c1[nH]c(-c2ccc(-c3ccc(-c4cnc([C@@H]5CCCN5C(=O)[C@@H](NC(=O)OC)[C@@H](C)OC)[nH]4)cc3)cc2)c2c1CCC2)C(C)C [AG_066]
- EC50 [1]: 0.001 to 0.1 nM
- CC50 at 3 days [2]: > 1 nM
- EC50 [3]: 1 to 10 nM

SMILES: COC(=O)N[C@H](C(=O)N1CCC[C@H]1c1[nH]c(-c2ccc(-c3ccc(-c4cnc([C@@H]5CCCN5C(=O)[C@@H](NC(=O)OC)[C@@H](C)OC)[nH]4)cc3)cc2)c2c1CCCC2)C(C)C [AG_067]
- EC50 [1]: 0.001 to 0.1 nM
- CC50 at 3 days [2]: > 1 nM
- EC50 [3]: 10 to 100 nM

SMILES: COC(=O)NC(C(=O)N1CCC[C@H]1c1[nH]c(-c2ccc(-c3ccc(-c4cnc([C@@H]5CCCN5C(=O)[C@@H](NC(=O)OC)[C@@H](C)OC)[nH]4)cc3)cc2)c2c1CCC2)[C@@H](C)OC (stereo partly drawn) [AG_068_A]
- EC50 [1]: 0.001 to 0.1 nM
- CC50 at 3 days [2]: > 1 nM
- EC50 [3]: 1 to 10 nM

SMILES: COC(=O)NC(C(=O)N1CCC[C@@H]1c1[nH]c(-c2ccc(-c3ccc(-c4cnc([C@@H]5CCCN5C(=O)[C@@H](NC(=O)OC)[C@@H](C)OC)[nH]4)cc3)cc2)c2c1CCC2)[C@@H](C)OC (stereo partly drawn) [AG_068_B]
- EC50 [1]: 0.101 to 1 nM
- CC50 at 3 days [2]: > 1 nM
- EC50 [3]: 10 to 100 nM

SMILES: COC(=O)N[C@H](C(=O)N1CCC[C@H]1c1ccc(-c2ccc(-c3ccc(-c4cnc([C@@H]5CC6(CN5C(=O)[C@H](NC(=O)OC)C(C)C)OCC(C)(C)CO6)[nH]4)cc3)cc2)[nH]1)C(C)C [AG_076]
- EC50 [1]: 0.001 to 0.1 nM
- CC50 at 3 days [2]: > 5 nM
- EC50 [3]: 10 to 100 nM

SMILES: COC(=O)N[C@H](C(=O)N1CCC[C@H]1c1[nH]c(-c2ccc(-c3ccc(-c4cnc([C@@H]5CCCN5C(=O)[C@@H](NC(=O)OC)[C@@H](C)OC)[nH]4)cc3)cc2)c2c1COC2)C(C)C [AG_077]
- EC50 [1]: 0.001 to 0.1 nM
- CC50 at 3 days [2]: > 5 nM
- EC50 [3]: 0.001 to 0.1 nM

SMILES: COC(=O)N[C@H](C(=O)N1CCC[C@H]1c1ncc(-c2ccc(-c3ccc(-c4[nH]c([C@@H]5CCCN5C(=O)[C@@H](NC(=O)OC)[C@@H](C)OC)c5c4CCCC5)cc3)cc2)[nH]1)C(C)C [AG_078_A]
- EC50 [1]: 0.001 to 0.1 nM
- CC50 at 3 days [2]: > 5 nM
- EC50 [3]: 10 to 100 nM

SMILES: COC(=O)N[C@H](C(=O)N1CCC[C@H]1c1ncc(-c2ccc(-c3ccc(-c4[nH]c([C@H]5CCCN5C(=O)[C@@H](NC(=O)OC)[C@@H](C)OC)c5c4CCCC5)cc3)cc2)[nH]1)C(C)C [AG_078_B]
- EC50 [1]: 0.101 to 1 nM
- CC50 at 3 days [2]: > 5 nM
- EC50 [3]: 10 to 100 nM

SMILES: COC(=O)N[C@H](C(=O)N1CCC[C@H]1c1ncc(-c2ccc(-c3ccc(-c4[nH]c([C@@H]5CCCN5C(=O)[C@@H](NC(=O)OC)[C@@H](C)OC)c5c4COC5)cc3)cc2)[nH]1)C(C)C [AG_079_A]
- EC50 [1]: 0.001 to 0.1 nM
- CC50 at 3 days [2]: > 5 nM
- EC50 [3]: 0.001 to 0.1 nM

SMILES: COC(=O)N[C@H](C(=O)N1CCC[C@H]1c1ncc(-c2ccc(-c3ccc(-c4[nH]c([C@H]5CCCN5C(=O)[C@@H](NC(=O)OC)C(C)OC)c5c4COC5)cc3)cc2)[nH]1)C(C)C (stereo partly drawn) [AG_079_B]
- EC50 [1]: 0.101 to 1 nM
- CC50 at 3 days [2]: > 5 nM
- EC50 [3]: 1 to 10 nM

SMILES: COC(=O)N[C@H](C(=O)N1CCC[C@@H]1c1[nH]c(-c2ccc(-c3ccc(-c4cnc([C@@H]5CCCN5C(=O)[C@@H](NC(=O)OC)[C@@H](C)OC)[nH]4)cc3)cc2)c2c1COC2)C(C)OC (stereo partly drawn) [AG_080_B]
- EC50 [1]: 0.101 to 1 nM
- CC50 at 3 days [2]: > 5 nM
- EC50 [3]: 1 to 10 nM

SMILES: COC(=O)N[C@H](C(=O)N1CCC[C@H]1c1ncc(-c2ccc(-c3ccc(-c4ccc([C@@H]5CCCN5C(=O)N(NC(=O)OC)C(C)C)[nH]4)cc3)cc2)[nH]1)C(C)C [AG_081_A]
- EC50 [1]: 0.101 to 1 nM
- CC50 at 3 days [2]: > 5 nM
- EC50 [3]: 10 to 100 nM

SMILES: COC(=O)N[C@H](C(=O)N1CCC[C@H]1c1ncc(-c2ccc(-c3ccc(-c4ccc([C@H]5CCCN5C(=O)N(NC(=O)OC)C(C)C)[nH]4)cc3)cc2)[nH]1)C(C)C [AG_081_B]
- EC50 [1]: 0.001 to 0.1 nM
- CC50 at 3 days [2]: > 1 nM
- EC50 [3]: 10 to 100 nM

SMILES: COC(=O)N[C@H](C(=O)N1CCC[C@H]1c1ncc(-c2ccc(-c3ccc(-c4[nH]c(C5CCCN5C(=O)[C@@H]5COC(=O)N5)c5c4CCC5)cc3)cc2)[nH]1)C(C)C (stereo partly drawn) [AG_084_A]
- EC50 [1]: 0.101 to 1 nM
- CC50 at 3 days [2]: > 1 nM
- EC50 [3]: 1 to 10 nM

SMILES: COC(=O)NC(C(=O)N1CCCC1c1ccc(-c2ccc3c(c2)C(C)(C)c2cc(-c4cnc([C@@H]5CCCN5C(=O)[C@@H](NC(=O)OC)C(C)C)[nH]4)ccc2-3)[nH]1)[C@@H](C)OC (stereo partly drawn) [AG_085]
- EC50 [1]: 0.001 to 0.1 nM
- CC50 at 3 days [2]: > 1 nM
- EC50 [3]: 10 to 100 nM

SMILES: COC(=O)N[C@H](C(=O)N1CCC[C@H]1c1[nH]c(-c2ccc(-c3ccc(-c4cnc([C@@H]5CCCN5C(=O)[C@@H](NC(=O)OC)C5CC5)[nH]4)cc3)cc2)c2c1CCC2)C(C)C [AG_086]
- EC50 [1]: 0.001 to 0.1 nM
- CC50 at 3 days [2]: > 1 nM
- EC50 [3]: 10 to 100 nM

SMILES: COC(=O)N[C@H](C(=O)N1CCCC1c1cc(Cl)c(-c2ccc(-c3ccc(-c4cnc([C@@H]5CCCN5C(=O)[C@@H](NC(=O)OC)C(C)C)[nH]4)cc3)cc2)[nH]1)C(C)C (stereo partly drawn) [AG_087]
- EC50 [1]: 0.001 to 0.1 nM
- CC50 at 3 days [2]: > 1 nM
- EC50 [3]: 0.101 to 1 nM

SMILES: COC(=O)N[C@H](C(=O)N1CCC[C@H]1c1[nH]c(-c2ccc(-c3ccc(-c4[nH]c([C@@H]5CCCN5C(=O)[C@@H](NC(=O)OC)[C@@H](C)OC)c5c4COC5)cc3)cc2)c2c1COC2)[C@@H](C)OC [AG_088_A]
- EC50 [1]: 0.001 to 0.1 nM
- CC50 at 3 days [2]: > 1 nM
- EC50 [3]: 0.101 to 1 nM

SMILES: COC(=O)N[C@H](C(=O)N1CCC[C@H]1c1[nH]c(-c2ccc(-c3ccc(-c4cnc([C@@H]5CCCN5C(=O)[C@@H](NC(=O)OC)[C@@H](C)O)[nH]4)cc3)cc2)c2c1CCC2)C(C)C [AG_090]
- EC50 [1]: 0.001 to 0.1 nM
- CC50 at 3 days [2]: > 1 nM
- EC50 [3]: 1 to 10 nM

SMILES: COC[C@H](NC(=O)OC)C(=O)N1CCC[C@H]1c1ncc(-c2ccc(-c3ccc(-c4[nH]c([C@@H]5CCCN5C(=O)[C@@H](NC(=O)OC)C(C)C)c5c4CCC5)cc3)cc2)[nH]1 [AG_091]
- EC50 [1]: 0.001 to 0.1 nM
- CC50 at 3 days [2]: > 1 nM
- EC50 [3]: 1 to 10 nM

SMILES: COC(=O)NC(C(=O)N1CCC[C@H]1c1nc2ccc(-c3ccc(-c4[nH]c([C@@H]5CCCN5C(=O)[C@@H](NC(=O)OC)C(C)OC)c5c4CCC5)cc3)cc2[nH]1)[C@@H](C)OC (stereo partly drawn) [AG_092]
- EC50 [1]: 0.001 to 0.1 nM
- CC50 at 3 days [2]: > 1 nM
- EC50 [3]: 10 to 100 nM

SMILES: COC(=O)N[C@H](C(=O)N1CCC[C@H]1c1[nH]c(-c2ccc(-c3ccc(-c4cnc([C@@H]5CCCN5C(=O)[C@@H](NC(=O)OC)C(C)(C)C)[nH]4)cc3)cc2)c2c1CCC2)C(C)C [AG_093]
- EC50 [1]: 0.001 to 0.1 nM
- CC50 at 3 days [2]: > 1 nM
- EC50 [3]: 10 to 100 nM
